Test results as given in patent US7259271B2, “Peripherally-selective inhibitors of dopamine-β-hydroxylase and method of their preparation” (Portela & C.A., S.A., priority 2002, dated 2007).
Counter-ions that a name gives are not always drawn.

Target: T1, human DβH (Homo sapiens, UniProt P09172)
T1 construct: SK-N-SH cells (ATCC HTB-11), a human neuroblastoma derived cell line, were used as a source of human DβH; host or cells: SK-N-SH cells
T1 sequence (P09172 1-617): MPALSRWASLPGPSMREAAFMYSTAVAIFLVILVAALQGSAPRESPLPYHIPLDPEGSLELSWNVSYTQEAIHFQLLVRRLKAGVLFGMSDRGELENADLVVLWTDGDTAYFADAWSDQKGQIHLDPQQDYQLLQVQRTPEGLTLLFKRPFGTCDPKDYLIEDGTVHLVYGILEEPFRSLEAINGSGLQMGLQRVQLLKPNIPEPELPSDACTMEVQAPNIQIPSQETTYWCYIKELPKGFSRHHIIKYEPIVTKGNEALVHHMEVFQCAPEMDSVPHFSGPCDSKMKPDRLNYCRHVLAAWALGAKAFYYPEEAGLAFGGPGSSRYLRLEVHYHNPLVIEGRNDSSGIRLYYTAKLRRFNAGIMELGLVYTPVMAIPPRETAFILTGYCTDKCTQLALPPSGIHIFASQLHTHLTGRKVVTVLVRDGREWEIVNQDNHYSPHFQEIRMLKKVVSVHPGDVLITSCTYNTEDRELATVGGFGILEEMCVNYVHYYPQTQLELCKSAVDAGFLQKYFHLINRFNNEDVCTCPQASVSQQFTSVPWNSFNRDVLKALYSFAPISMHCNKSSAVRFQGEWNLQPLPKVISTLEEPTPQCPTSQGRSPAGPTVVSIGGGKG
Experiment: DβH activity (β-hydroxylation of dopamine to noradrenaline) in SK-N-SH cells
Assay type: cell-based
Details: for DβH activity in SK-N-SH cells, Mean ± SEM: compound 5 μM, 50 mM dopamine; for inhibition of DβH activity (in words): 5 μM, as listed in Table 1; for remaining activity at 5 µM: SK-N-SH, 0.75 h, read-out: DβH activity in SK-N-SH cells, Mean ± SEM; for IC50 values against human DβH activity (in words): concentration-dependent decrease in β-hydroxylation of dopamine; for IC50: read-out: IC50 for inhibition of DβH in SK-N-SH cells
Protocol: SK-N-SH cells (ATCC HTB-11), a human neuroblastoma derived cell line, were used as a source of human DβH. SK-N-SH cells cultured in 24 well plates were preincubated for 20 min in a reaction medium containing 200 mM sodium acetate, 30 mM N-ethylmaleimide, 5 μM copper sulphate, 0.5 mg/ml catalase aqueous solution, 1 mM pargyline, 10 mM sodium fumarate and 20 mM ascorbic acid. […] During preincubation and incubation, the cells were continuously shaken and maintained at 37° C. The reaction was terminated by the addition of 0.2 M perchloric acid. The acidified samples were stored at 4° C. before injection into the high pressure liquid chromatograph for the assay of noradrenaline.

Structure (SMILES)	inhibition of DβH activity (in words)	remaining activity at 5 µM [%]	further results
COc1ccc2c(c1)C[C@@H](n1c(CCN)c[nH]c1=S)CS2.Cl (racemic) [Compound 30, (R,S)-5-(2-aminoethyl)-1-(6-methoxythiochroman-3-yl)-1,3-droimidazole-2-thione hydrochloride]	–	–	DβH activity in SK-N-SH cells, Mean ± SEM: 99.4 ± 2.8 % of control
Cl.NCCc1c[nH]c(=S)n1[C@H]1CSc2ccc(O)cc2C1 (racemic) [Compound 31, (R,S)-5-(2-aminoethyl)-1-(6-hydroxythiochroman-3-yl)-1,3-dihydroimidazole-2-thione hydrochloride]	–	–	DβH activity in SK-N-SH cells, Mean ± SEM: 27.3 ± 0.4 % of control
Cl.NCCc1c[nH]c(=S)n1[C@H]1CCc2c(F)cc(F)cc2C1 [Compound 2, (S)-5-(2-aminoethyl)-1-(5,7-difluoro-1,2,3,4-tetrahydronaphthalen-2-yl)-1,3-dihydroimidazole-2-thione hydrochloride]	markedly inhibit	1.6 ± 0.3	IC50 values against human DβH activity (in words): low nM range; IC50: 60 nM
Cl.NCc1c[nH]c(=S)n1[C@H]1COc2c(F)cc(F)cc2C1 [Compound 3, (R)-5-aminomethyl-1-(6,8-difluorochroman-3-yl)-1,3-dihydroimidazole-2-thione hydrochloride]	markedly inhibit	4.1 ± 0.6	IC50 values against human DβH activity (in words): low nM range; IC50: 91 nM
Cl.NCCCc1c[nH]c(=S)n1[C@H]1CCc2c(F)cc(F)cc2C1 [Compound 5, (S)-5-(3-aminopropyl)-1-(5,7-difluoro-1,2,3,4-tetrahydronaphthalen-2-yl)-1,3-dihydroimidazole-2-thione hydrochloride]	markedly inhibit	8.1 ± 0.3	–
Cl.NCCc1c[nH]c(=S)n1[C@H]1COc2c(F)cccc2C1 [Compound 6, (R)-5-(2-aminoethyl)-1-(8-fluorochroman-3-yl)-1,3-dihydroimidazole-2-thione hydrochloride]	markedly inhibit	6.9 ± 0.6	–
Cl.NCCc1c[nH]c(=S)n1[C@H]1COc2cc(F)c(F)cc2C1 [Compound 8, (R)-5-(2-aminoethyl)-1-(6,7-difluorochroman-3-yl)-1,3-dihydroimidazole-2-thione hydrochloride]	markedly inhibit	9.4 ± 0.7	–
NCCc1c[nH]c(=S)n1[C@@H]1COc2c(F)cc(F)cc2C1 [Compound 9, (S)-5-(2-aminoethyl)-1-(6,8-difluorochroman-3-yl)-1,3-dihydroimidazole-2-thione hydrochloride]	–	50.2 ± 1.9	–
Cl.NCCc1c[nH]c(=S)n1[C@H]1COc2c(cc(F)c(F)c2F)C1 [Compound 10, (R)-5-(2-aminoethyl)-1-(6,7,8-trifluorochroman-3-yl)-1,3-dihydroimidazole-2-thione hydrochloride]	markedly inhibit	8.2 ± 0.7	–
COc1cc(Cl)cc2c1OC[C@H](n1c(CCN)c[nH]c1=S)C2 [Compound 11, (R)-5-(2-aminoethyl)-1-(6-chloro-8-methoxychroman-3-yl)-1,3-dihydroimidazole-2-thione hydrochloride]	–	36.7 ± 4.4	–
COc1cc(Cl)c2c(c1)C[C@@H](n1c(CCN)c[nH]c1=S)CO2 [Compound 13, (R)-5-(2-aminoethyl)-1-(6-methoxy-8-chlorochroman-3-yl)-1,3-dihydroimidazole-2-thione hydrochloride]	–	94 ± 3.1	–
NCCc1c[nH]c(=S)n1[C@H]1COc2cc(Cc3ccccc3)c(O)cc2C1 [Compound 15, (R)-5-(2-aminoethyl)-1-(6-hydroxy-7-benzylchroman-3-yl)-1,3-dihydroimidazole-2-thione hydrochloride]	–	86.1 ± 2.7	–
NCCc1c[nH]c(=S)n1[C@H]1COc2c(cccc2[N+](=O)[O-])C1 [Compound 17, (R)-5-(2-aminoethyl)-1-(8-nitrochroman-3-yl)-1,3-dihydroimidazole-2-thione hydrochloride]	–	53.2 ± 3.9	–
COc1cccc2c1OC[C@H](n1c(CCN)c[nH]c1=S)C2.Cl [Compound 19, (R)-5-(2-aminoethyl)-1-(8-methoxychroman-3-yl)-1,3-dihydroimidazole-2-thione hydrochloride]	markedly inhibit	6.9 ± 0.5	–
NCCc1c[nH]c(=S)n1[C@H]1CCc2ccccc2C1 [Compound 20, (S)-5-(2-aminoethyl)-1-(1,2,3,4-tetrahydronaphthalen-2-yl)-1,3-dihydroimidazole-2-thione hydrochloride]	–	16.8 ± 4.8	–
Cl.NCc1c[nH]c(=S)n1[C@H]1COc2ccccc2C1 [Compound 24, (R)-5-aminomethyl-1-chroman-3-yl-1,3-dihydroimidazole-2-thione hydrochloride]	markedly inhibit	0	–

The next lines start with results.

inhibition of DβH activity (in words)	remaining activity at 5 µM [%]	Structure (SMILES)	further results
markedly inhibit	8 ± 0.1	Cl.NCCc1c[nH]c(=S)n1[C@H]1COc2ccc(F)cc2C1 [Compound 7, (R)-5-(2-aminoethyl)-1-(6-fluorochroman-3-yl)-1,3-dihydroimidazole-2-thione hydrochloride]	–
markedly inhibit	3 ± 0.5	Cl.NCCc1c[nH]c(=S)n1[C@H]1COc2ccccc2C1 [Compound 12, (R)-5-(2-aminoethyl)-1-chroman-3-yl-1,3-dihydroimidazole-2-thione hydrochloride]	–
–	77.9 ± 2.2	CC(=O)Nc1ccc2c(c1)C[C@@H](n1c(CCN)c[nH]c1=S)CO2 [Compound 14, (R)-5-(2-aminoethyl)-1-[6-(acetylamino)chroman-3-yl]-1,3-dihydroimidazole-2-thione hydrochloride]	–
markedly inhibit	0	Cl.NCCc1c[nH]c(=S)n1[C@H]1COc2ccc(O)cc2C1 [Compound 16, (R)-5-(2-aminoethyl)-1-(6-hydroxychroman-3-yl)-1,3-dihydroimidazole-2-thione hydrochloride]	–
–	94.8 ± 1.2	NCCc1c[nH]c(=S)n1[C@H]1COc2ccc([N+](=O)[O-])cc2C1 [Compound 18, (R)-5-(2-aminoethyl)-1-(6-nitrochroman-3-yl)-1,3-dihydroimidazole-2-thione hydrochloride]	–
–	125 ± 6.5	NCCc1c[nH]c(=S)n1[C@H]1COc2c(O)cccc2C1 [Compound 21, (R)-5-(2-aminoethyl)-1-(8-hydroxychroman-3-yl)-1,3-dihydroimidazole-2-thione hydrochloride]	–
–	17.8 ± 2.1	NCc1c[nH]c(=S)n1[C@H]1COc2ccc(O)cc2C1 [Compound 22, (R)-5-aminomethyl-1-(6-hydroxychroman-3-yl)-1,3-dihydroimidazole-2-thione hydrochloride]	–
–	54.5 ± 9.9	COc1ccc2c(c1)C[C@@H](n1c(CCN)c[nH]c1=S)CO2 [Compound 23, (R)-5-(2-aminoethyl)-1-(6-methoxychroman-3-yl)-1,3-dihydroimidazole-2-thione hydrochloride]	–
–	66 ± 4.5	COc1ccc2c(c1)C[C@@H](n1c(CCNCc3ccccc3)c[nH]c1=S)CO2 [Compound 25, (R)-5-(2-Benzylaminoethyl)-1-(6-methoxychroman-3-yl)-1,3-dihydroimidazole-2-thione hydrochloride]	–
markedly inhibit	4.5 ± 1.9	Cl.Oc1ccc2c(c1)C[C@@H](n1c(CCNCc3ccccc3)c[nH]c1=S)CO2 [Compound 26, (R)-5-(2-Benzylaminoethyl)-1-(6-hydroxychroman-3-yl)-1,3-dihydroimidazole-2-thione hydrochloride]	–
–	15.5 ± 5.8	CNCCc1c[nH]c(=S)n1[C@H]1COc2ccc(O)cc2C1 [Compound 27, (R)-1-(6-Hydroxychroman-3-yl)-5-(2-methylaminoethyl)-1,3-dihydroimidazole-2-thione hydrochloride]	–
markedly inhibit	2.6 ± 1.6	CNCCc1c[nH]c(=S)n1[C@H]1COc2c(F)cc(F)cc2C1.Cl [Compound 28, (R)-1-(6,8-Difluorochroman-3-yl)-5-(2-methylaminoethyl)-1,3-dihydroimidazole-2-thione hydrochloride]	–
markedly inhibit	2.2 ± 2.5	CNCCc1c[nH]c(=S)n1[C@H]1COc2ccccc2C1.Cl [Compound 29, (R)-1-Chroman-3-yl-5-(2-methylaminoethyl)-1,3-dihydroimidazole-2-thione hydrochloride]	–
